Entries after “also recorded” stand apart in the source; their conditions may differ.

Holding throughout (type): cell-based
One experiment has as its system LNCaP cells. Kind of experiment: Dose response of AKT inhibitors in parental and AKT-inhibitor-resistant LNCaP cells (FIGS. 1-2, 6). How it is done:
Resistant clones to both inhibitors were derived from populations of cancer cells treated with increasing doses of AKT inhibitor over time. […] For MK2206, cells that are ˜40× less sensitive were cloned.
(§1) The in vitro potency of the combinations of the compound of Example 2 with certain specific chemotherapeutic agents was measured using the CellTiterGlo® Luminescent Cell Viability Assay, commercially available from Promega Corp., Madison, Wis. This homogeneous assay method is based on the recombinant expression of Coleoptera luciferase (U.S. Pat. Nos. 5,583,024; 5,674,713; 5,700,670) and determines the number of viable cells in culture based on quantitation of the ATP present, an indicator of metabolically active cells (Crouch et al (1993) J. Immunol. Meth. 160:81-88; U.S. Pat. No. 6,602,677). The CellTiter-Glo® Assay was conducted in 96 or 384 well format, making it amenable to automated high-throughput screening (HTS) (Cree et al (1995) AntiCancer Drugs 6:398-404). The homogeneous assay procedure involves adding the single reagent (CellTiter-Glo® Reagent) directly to cells cultured in serum-supplemented medium. Cell washing, removal of medium and multiple pipetting steps are not required. The system detects as few as 15 cells/well in a 384-well format in 10 minutes after adding reagent and mixing.
The homogeneous “add-mix-measure” format results in cell lysis and generation of a luminescent signal proportional to the amount of ATP present. The amount of ATP is directly proportional to the number of cells present in culture. The CellTiterGlo® Assay generates a “glow-type” luminescent signal, produced by the luciferase reaction, which has a half-life generally greater than five hours, depending on cell type and medium used. Viable cells are reflected in relative luminescence units (RLU). […] Data can be recorded by luminometer or CCD camera imaging device. The luminescence output is presented as relative light units (RLU), measured over time.

The next experiment deals with IGROV1 cells. Kind of experiment: Treatment of parental and AKT-inhibitor-resistant IGROV1 ovarian cancer cells (FIGS. 7-9). As to conditions: for potency in parental and resistant lines: all IGROV1 lines, FIG. 9. On the procedure:
as §1
The homogeneous “add-mix-measure” format results in cell lysis and generation of a luminescent signal proportional to the amount of ATP present. The amount of ATP is directly proportional to the number of cells present in culture. The CellTiterGlo® Assay generates a “glow-type” luminescent signal, produced by the luciferase reaction, which has a half-life generally greater than five hours, depending on cell type and medium used. Viable cells are reflected in relative luminescence units (RLU). The substrate, Beetle Luciferin, is oxidatively decarboxylated by recombinant firefly luciferase with concomitant conversion of ATP to AMP and generation of photons. The extended half-life eliminates the need to use reagent injectors and provides flexibility for continuous or batch mode processing of multiple plates. This cell proliferation assay can be used with various multiwell formats, e.g. 96 or 384 well format. Data can be recorded by luminometer or CCD camera imaging device. The luminescence output is presented as relative light units (RLU), measured over time.

A further experiment deals with pS6. The experiment in a line: Western blot of AKT inhibitor dosed LNCaP cells, downstream pS6 (FIGS. 3-4). From the text:
(§2) FIGS. 3-4 show Western blot analysis of AKT inhibitor dosed to cancer cells (LNCaP cells).
A general note: Immunoblotting shows a protein as a band on a membrane.

In the next experiment the test system is Akt. Kind of experiment: Western blot of AKT inhibitor dosed LNCaP cells, Akt phosphorylation and inhibitor binding (FIGS. 3-4). As to conditions: MK2206 resistant LNCaP cells vs parental lines.
Text: as §2

Turning to `CC(C)NC[C@@H](C(=O)N1CCN(c2ncnc3c2[C@H](C)C[C@H]3O)CC1)c1ccc(Cl)cc1` [GDC-0068, (S)-2-(4-chlorophenyl)-1-(4-((5R,7R)-7-hydroxy-5-methyl-6,7-dihydro-5H-cyclopenta [d]pyrimidin-4-yl)piperazin-1-yl)-3-(isopropylamino)propan-1-one], in the experiment on LNCaP cells (MK2206-resistant LNCaP cells, FIG. 6), the “sensitivity of MK2206-resistant cells to the inhibitor” value is given as “still sensitive; also recorded: remain sensitvie”. For the same compound, in the experiment on IGROV1 cells (IGROV1 cells resistant to GDC0068, GDC-0068 compared with MK2206), the “resistance of GDC0068-resistant cells to the inhibitor” value was “more resistant to GDC-0068 than MK2206”. In addition, the “inhibition of downstream pS6” value in the experiment with pS6 (GDC-0068 resistant LNCaP cells) is listed as “less potent”.
Regarding `NC1(c2ccc(-c3nc4ccn5c(=O)[nH]nc5c4cc3-c3ccccc3)cc2)CCC1` [MK2206, 8-[4-(1-aminocyclobutyl)phenyl]-9-phenyl-1,2,4-triazolo[3,4-f][1,6]naphthyridin-3(2H)-one], the “resistance of GDC-0068 selected cells to the inhibitor” value in the experiment with LNCaP cells (GDC-0068 selected LNCaP cells, FIG. 6) is given as “similarly resistant”. Also, the “fold less sensitive to MK2206, resistant clones vs parental” value in the experiment on LNCaP cells (LNCaP clones derived under increasing doses of MK2206) was around 40 ×. Besides, in the experiment on Akt, the “inhibition of Akt phosphorylation” value was “failed to inhibit Akt phosphorylation”. Also, in the experiment on IGROV1 cells (IGROV1 cells resistant to GDC0068 and cells resistant to MK2206), the “resistance to allosteric inhibition” value is on record as “equally resistant”. The “inhibition of pS6” value with pS6 (MK2206 resistant LNCaP cells) is recorded as “lost the inhibition of pS6”.
With `Cc1c(CN2CCN(C(=O)[C@H](C)O)CC2)sc2c(N3CCOCC3)nc(-c3cnc(N)nc3)nc12` [GDC-0980], in the experiment on IGROV1 cells, the “potency in parental and resistant lines” value is reported as “remain potent”.
In the case of `CS(=O)(=O)N1CCN(Cc2cc3nc(-c4cccc5[nH]ncc45)nc(N4CCOCC4)c3s2)CC1` [GDC-0941], in the experiment with IGROV1 cells, the “potency in parental and resistant lines” value is recorded as “remain potent”.

For the origin of these results see patent US9994913B2, “Methods and compositions for detecting and treating drug resistant AKT mutant” (Genentech, Inc., priority 2013, dated 2018).
